The source of these data is paper PMC10363607, “Identification of novel and potent dual-targeting HDAC1/SPOP inhibitors using structure-based virtual screening, molecular dynamics simulation and evaluation of in vitro and in vivo antitumor activity” (Frontiers in Pharmacology, 2023).

Entries after “also recorded” stand apart in the source; their conditions may differ. Where two headings read alike, the source gives them in different places.

In one data set the target is T1, HDAC1 (Homo sapiens, UniProt Q13547).
T1 construct: purchased Abcam
T1 sequence (Q13547 whole entry): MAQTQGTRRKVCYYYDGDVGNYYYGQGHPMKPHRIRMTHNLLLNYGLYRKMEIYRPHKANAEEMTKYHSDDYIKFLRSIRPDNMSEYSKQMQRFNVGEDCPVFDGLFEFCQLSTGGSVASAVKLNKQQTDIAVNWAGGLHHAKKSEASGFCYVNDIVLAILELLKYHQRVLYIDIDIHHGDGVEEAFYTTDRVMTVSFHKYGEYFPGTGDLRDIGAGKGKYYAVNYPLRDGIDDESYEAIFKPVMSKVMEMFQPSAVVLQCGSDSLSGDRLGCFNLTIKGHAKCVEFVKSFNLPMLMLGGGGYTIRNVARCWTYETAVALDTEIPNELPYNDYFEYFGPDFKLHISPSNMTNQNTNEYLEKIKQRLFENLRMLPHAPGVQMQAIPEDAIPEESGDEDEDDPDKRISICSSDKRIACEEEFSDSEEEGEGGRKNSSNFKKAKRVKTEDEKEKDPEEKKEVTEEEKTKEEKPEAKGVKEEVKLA
As to the kind of experiment: In vitro HDAC1 inhibition, fluorescent substrate Boc-Lys(acetyl)-AMC. The class given is biochemical. The procedure: In the 96-well plates, different concentrations of the tested compound (50 μL) were added to 10 μl of HDAC1 enzyme solution. After incubation at 37°C for 5 min, 40 μl of the fluorescent substrate Boc-Lys (acetyl)-AMC was then added to the mixture. The plates were incubated at 37°C for 0.5 h, and the developer (100 μl) containing trypsin and TSA was added to the mixture. Finally, the fluorescence intensity at wavelengths of 390 nm and 460 nm was measured 20 min later by a microplate reader (Perkin Elemer).
(§1) All experiments were performed in triplicate. Competition binding data were analyzed using GraphPad Prism 6.0 software (GraphPad Software Inc, San Diego, CA) and the inhibition constants (IC50) were calculated by nonlinear curve fitting.

A further data set deals with T2, SPOP (Homo sapiens, UniProt O43791).
T2 construct: purchased Abcam
T2 sequence (O43791 23-337): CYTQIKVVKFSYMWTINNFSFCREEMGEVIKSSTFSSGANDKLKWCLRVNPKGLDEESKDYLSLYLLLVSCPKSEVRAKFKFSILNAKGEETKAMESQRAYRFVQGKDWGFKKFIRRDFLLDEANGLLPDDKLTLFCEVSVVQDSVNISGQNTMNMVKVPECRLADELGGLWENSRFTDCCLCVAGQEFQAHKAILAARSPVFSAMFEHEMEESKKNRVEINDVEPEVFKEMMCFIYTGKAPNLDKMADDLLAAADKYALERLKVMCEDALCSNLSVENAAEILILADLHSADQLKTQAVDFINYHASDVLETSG
As to the kind of experiment: SPOP fluorescence polarization (FP) competition assay with FITC-puc_SBC1. It is filed as binding. On the procedure:
The enzymatic activity of SPOP was determined by a previously described fluorescence polarization (FP) assay ([Guo et al., 2016]). FITC-labeled peptide substrate puc_SBC1 (FITC-puc_SBC1, FITC-[…]) was purchased (GL Biochem Ltd, Shanghai). Serial dilutions of competitors for SPOP23-337 were prepared from the 20 mM DMSO stocks. The diluted compound was added to the reaction mixture in 100 μl of HEPES (25 mM, pH 7.5) containing 10 μM SPOP and 50 nM FITC-puc_SBC1. After incubation for 1 h at 4°C, FP was measured on a microplate reader (Perkin Elemer) using the wavelengths of 480 nm for excitation and 535 nm for emission, respectively.
as §1

A further data set has as its system 769-P cell. As to the kind of experiment: MTT cell growth inhibition, 769-P. The class given is cell-based. The conditions noted are these: 72 h, read-out: 769-P cell proliferation IC50. The procedure: (§2) According to the previously reported method ([Namwan et al., 2022]; [Zhao et al., 2023]), at a concentration of 5 × 10^4/ml, cell lines were planted in 96-well plates and cultivated for an entire night. The cells were incubated at 37 °C for 72 h while being exposed to various inhibitor concentrations. And then, MTT stock solution (5 mg/ml) was added to each well and incubated for an additional 4 h. Dimethyl sulfoxide (DMSO) was used to dissolve the insoluble crystals, and a microplate reader was used to detect absorbance at 570 nm. Survival ratio (%) was calculated using the following equation: survival ratio (%) = (A treatment /A control ) × 100%. Data were analyzed using the analysis software GraphPad Prism 6.0 software (GraphPad Software Inc., San Diego, CA), and the half-maximal inhibitory concentration (IC50) values were calculated by the dose-response curve visualized using nonlinear regression (curve fit).

A further data set has as its system OS-RC-2 cell. Nature of the data set: MTT cell growth inhibition, OS-RC-2. The class given is cell-based. The conditions noted are these: read-out: OS-RC-2 cell proliferation IC50. The procedure:
as §2

Data set [1] deals with SPOP and HDAC levels in HCT-116 cells. Nature of the data set: Western blot of SPOP and HDAC levels in HCT-116 cells. It is filed as cell-based. The following applies: HCT-116 cells, 0, 0.5 and 2 μM, 72 h. The procedure: (§3) The tumor cells (10^6 cells/well) were seeded onto 6-well plates and allowed to culture for 24 h. The cells were incubated with various concentrations (0, 0.5 and 2 μM) of HS-2 at 37°C for 72 h. Tumor cells were washed and lysed with RIPA. Protein samples were detected by western blot as described previously ([Zheng et al., 2021]).

The subject of data set [2] is SPOP and HDAC levels in A498 cells. Nature of the data set: Western blot of SPOP and HDAC levels in A498 cells. It is filed as cell-based. The following applies: A498 cells, 0, 0.5 and 2 μM, 72 h. The procedure:
as §3

Another data set has as its system HCT-116 tumor cells. Nature of the data set: In vivo anticancer activity, HCT-116 xenograft. The following applies: six times; for tumor volume versus control group: HCT-116 xenograft, nude mice. The procedure:
According to the previously reported in vivo inhibition method, we injected HCT-116 tumor cells (200 μl, 1 × 10^7 cells) into the right subcutaneous space of 6-week-old BALB/c nude mice (Experimental Animal Center of Yangzhou University (Yangzhou, China) ([Zheng et al., 2021]). All experimental protocols were approved by the Animal Ethics Committee of China Pharmaceutical University. When the tumors grew to 90–120 mm^3, the mice were randomly divided into three groups (five mice per group) and intraperitoneally administered with vehicle (PBS buffer pH 7.4, volume capacity: 0.2 ml), compound HS-2 (volume capacity: 0.2 ml in PBS vehicle, 5 mg/kg), and compound HS-2 (volume capacity: 0.2 ml in PBS vehicle, 10 mg/kg) every 3 days for a total of six times. Tumor volume and weight were measured every 3 days. Tumor volume was calculated using the formula (c × c × d)/2 (c, the smallest diameter; d, the largest diameter).

Where [3] appears, read: FP, 10 μM SPOP, 50 nM FITC-puc_SBC1, triplicate.
The mark [4] stands for this setting: 5 and 10 mg/kg intraperitoneally every 3 days.

Consider `Cc1cccn2c(=O)c3cc(ONCCCCCC(=O)NO)c(=N)n(CCc4cccs4)c3nc12` [HS-1], for which the IC50 was 0.0137 ± 0.0011 µM on HDAC1 (triplicate) and 18.3 ± 2.5 µM at SPOP (setting [3]).
In the case of `Cc1cccn2c(=O)c3cc(ONCCCCCC(=O)NO)c(=N)n(CCc4ccc(C(F)(F)F)cc4)c3nc12` [HS-2], the IC50 was 0.0076 ± 0.0004 µM at HDAC1 (triplicate); 9.1 ± 0.7 µM on SPOP (setting [3]); 5.2 ± 1.1 µM with 769-P cell; less than 10 µM in the data set with 769-P cell (Homo sapiens, 769-P); 9.3 ± 1.7 µM in the data set with OS-RC-2 cell (72 h); less than 10 µM in the data set on OS-RC-2 cell (Homo sapiens, OS-RC-2, 72 h). In addition, on HDAC1 (versus positive control Vorinostat), the “HDAC1 inhibitory effect relative to Vorinostat (IC50 ratio)” value is “about 1.1 times”. Moreover, on SPOP (versus positive control SPOP-IN-6b), the “SPOP inhibitory effect relative to SPOP-IN-6b (IC50 ratio)” value is reported as approximately 3.8 times. Also, the “HDAC level (western blot)” value in data set [1] and in data set [2] was “reduced” throughout. Also, the “SPOP level (western blot)” value in data set [1] and in data set [2] was “reduced” throughout. Moreover, the “tumor volume versus control group” value with HCT-116 tumor cells (5 mg/kg intraperitoneally every 3 days) and in the data set on HCT-116 tumor cells (10 mg/kg intraperitoneally every 3 days) was “significantly less tumor volume than the control group” each time. The “body weight of mice” value in the data set on HCT-116 tumor cells (setting [4]) was “no significant differences”. The toxicity in vivo entry with HCT-116 tumor cells (setting [4]) is reported as “no significant toxicity”.
Turning to `Cc1cccn2c(=O)c3cc(ONCCCCCC(=O)NO)c(=N)n(CCc4ccc(Cl)c(F)c4)c3nc12` [HS-3], the IC50 at HDAC1 (triplicate) came out at 0.0115 ± 0.0013 µM; on SPOP (setting [3]), 14.9 ± 1.2 µM.
In the case of `CCN(CC)CCn1c(=N)c(ONCCCCCC(=O)NO)cc2c(=O)n3cccc(C)c3nc21` [HS-4], the IC50 is 0.0184 ± 0.0019 µM against HDAC1 (triplicate) and 23.2 ± 2.7 µM on SPOP (setting [3]).
Consider `Cc1cccn2c(=O)c3cc(C(=O)NCCCN4CCOCC4)c(=N)n(CCc4ccccc4)c3nc12` [SPOP-IN-6b, reference compound], for which the “HDAC1 (IC50, nM)” value on HDAC1 (triplicate) was “without an inhibitory effect on HDAC1; also recorded: no binding”. This compound returned an IC50 on SPOP (setting [3]) of 34.6 ± 3.1 µM.
Take `O=C(CCCCCCC(=O)Nc1ccccc1)NO` [Vorinostat, reference compound]: the “SPOP (IC50, μM)” value on SPOP (setting [3]) is recorded as “without affecting SPOP activity; also recorded: no binding”.
